Measured values published in patent publication US10662222B2, “Drug delivery enhancement agents” (The University of Bath, priority 2014, dated 2020).
Read-outs that look alike come from different tables or passages of the source.

Columns and labels:
Caco-2 cell monolayers [1] = experiment: Trans-epithelial electrical resistance (TEER) of Caco-2 monolayers after apical peptide application; type: cell-based, human; details: for Efficacy at 5 mM (TEER reduction): apical application to Caco-2 cell monolayers
Method: An immortalized human intestinal epithelial cell line (Caco-2) were maintained in DMEM/F12 medium (Gibco, Paisley, UK) supplemented with 10% FBS, 2 mM L-glutamine (Gibco) 100 U/ml penicillin and 100 μg/ml streptomycin (Gibco). Caco-2 cells were seeded at a density of 7×10^4/well on Transwell™ (Corning, N.Y.) polyester membrane filters (12 mm diameter, 0.4 μm pore size). Re-feeding with DMEM (Life Technologies, Paisley, UK) was carried out every second day. Caco-2 monolayers with trans-epithelial electrical resistance (TEER)>350 Ω·cm2 were considered confluent and used in transport assays; fixed paddle electrodes were used to measure TEER (World Precision Instruments, UK).
(§1) Apical to basal flux of 50 mg/ml 4 kDa dextran or 50 mg/ml 70 kDa dextran (Sigma) was performed to assess the impact of PIP peptides on paracellular permeability. Apical compartment volume was 200 μl; at set times the 600 μl basal compartment volume was collected and replaced with fresh HBSS. Apical and basal compartment fluorescence was determined using a Floustar Omega microplate reader (BMG Labtech, Ortenburg, Germany). TEER measurements were made for each well immediately after HBSS replacement. After 3 hr, the apical compartment dextran and peptide solution was removed and replaced with PBS and TEER values were recorded for a further 30 min to assess monolayer recovery.
(§2) TEER values were calculated by subtracting blank filter reading and normalized as a percentage of the initial TEER value for that monolayer. Fluorescent dextran flux used to calculate paracellular permeability was performed as previously described. Blood glucose levels were expressed as a percentage of the baseline glucose levels for each animal. Data were compared to control values using a two-tailed, un-paired Student's T-test.
Peptides were applied apically at a concentration of 5 mM to confluent monolayers of Caco-2 cells grown on semi-permeable inserts (Rubus et al. (1996) J. Pharma. Sci 85:165-169) to assess their ability to affect TJ function (Peterson & Mooseker (1992) J. Cell. Sci. 102(3):581-600). RRVEVKYDRR (peptide #6; peptide 640, SEQ ID NO: 3) reduced the trans-epithelial electrical resistance (TEER) of Caco-2 monolayers with a drop of 50% within 25 min of addition (FIG. 4), and none of the peptides were toxic at this concentration according to MTT assay (Mosman (1983) J. Immunol. Methods 65:55-63). Critically, following gentle washing, RRVEVKYDRR (SEQ ID NO: 3)-treated Caco-2 monolayers TEER values recovered to 80% of their original values within 24 h. A lead candidate, peptide NH2-rrdykvevrr-NH2, (SEQ ID NO: 20) was identified based on the RRVEVKYDRR (SEQ ID NO: 3) sequence but using the retro-inverso configuration with D-configuration amino acids.

Caco-2 monolayers = experiment: Apical to basal flux of fluorescent dextran (4 kDa, 70 kDa) across Caco-2 monolayers; type: cell-based, human; details: for transport of paracellular marker 4 kDa fluorescent dextran (4FD): relative to control peptide, FIG. 5
Method: as §1, §2

[2] = Blood glucose after SC or intraluminal intestinal (ILI) injection of insulin with PIP peptides; type: in vivo, rat
Method: Male Wistar rats, bred in house, were 225-275 g (approximately 6-8 weeks old) when placed on study. Rats were housed in groups of 3-5 per cage in a 12/12 hr light/dark cycle. All experiments were conducted during the light phase and carried out using a non-recovery protocol that used continuous isoflurane anesthesia. A 4-5 cm midline abdominal incision was made to expose mid-jejunum to early ileum regions of the small intestine and to provide access to the portal vein for the insertion of a cannula. Solutions of insulin (human recombinant; Sigma) and PIP peptides were prepared in 0.9% saline containing 10 mM citric acid to reduce local proteolysis and mixed 1:1 before injection using a 29-gauge hypodermic needle in a volume of 200 μL/kg (or ˜50 μL, per 250 g rat). The injection site was marked with a permanent marker. The incision was closed with surgical glue. Blood draws were taken from the portal vein as well as systemic circulation over the next two hours to monitor glucose, serum insulin and endotoxin. Control treatment groups included SC injection of insulin […] as well as intestinal injection of PIP peptide without insulin or insulin alone in the phosphate buffered saline (PBS) formulation used for all groups. At the end of a study, a 3-5 mm region about the marked intestine segment was isolated. This tissue was lysed for biochemical assessment of MLC phosphorylation state or fixed, sectioned, and stained with hematoxylin/eosin prior to analysis read by a licensed veterinary pathologist. Subcutaneous (SC) insulin injections (20 μl/kg) were performed in the mid-scapular region and blood glucose was measured in the same manner. All experiments were performed in accordance with the U.K. Animals (Scientific Procedures) Act of 1986, the European Communities Council Directive of 1986 (86/609/EEC), and the University of Bath's ethical review procedures.
as §2

[3] = system: myosin light chain (MLC) phosphorylated at Ser19; experiment: PhosphoMLC analysis (Western blot) of intestinal tissue after ILI injection; type: in vivo, rat; details: 20 mM peptide
Method: After rinsing with ice cold PBS, Caco-2 monolayers or epithelial cells from isolated intestinal tissue were lysed in 3 μL of a protease inhibitor cocktail and 200 μL RIPA buffer and left on ice for 10 min. Isolated intestinal tissue was similarly placed in ice cold PBS for 15 min prior to maceration in a protease inhibitor cocktail and RIPA buffer, being left on ice for 10 min. All cell and tissues lysates were centrifuged at 8000 rpm for 15 min to collect the supernatant, which was stored at −80° C. until use. For Western blots analysis, lysates were separated by SDS-PAGE (12%) run at 220V for 40 min and electro-transferred onto a PDVF membrane at 30V for 70 min using an XCell™ Blot module (Invitrogen). Membranes were blocked using 5% bovine serum albumin in TBS-T (2 M Tris, HCl, pH 7.5, 4 M NaCl and 0.1% Tween 20) for 1 hr. Membranes were washed with water, incubated with primary antibody (anti-myosin light chain (phospho S20) antibody or anti-myosin light chain 2) antibody overnight at 5° C., washed thrice with TBS-T, and then incubated with secondary horseradish […] (HRP)-coupled antibody for 1 hr at room temperature. After washing thrice in TBS-T, HRP activity was detected by ECL (Santa Cruz).
After rinsing with ice cold PBS to remove PIP peptide or control treatment agents, isolated intestinal tissue was placed in ice cold PBS for 15 min prior to addition of 25 μl protease inhibitor cocktail (Fisher), 25 μl phosphatase inhibitor cocktail (Fisher) and 500 μl RIPA buffer (Sigma Aldrich). After 10 min on ice lysates were centrifuged at 8000 rpm for 15 min to collect the supernatant, which was stored at −80° C. until use. For Western blots analysis, lysates were separated by SDS-PAGE (12%) run at 220V for 40 min and electro-transferred onto a PDVF membrane at 30V for 70 min using an XCell™ Blot module (Invitrogen). Membranes were blocked using 5% bovine serum albumin in TBS-T (2 M Tris HCl, pH 7.5, 4 M NaCl and 0.1% Tween 20) for 1 h. Membranes were washed with water, incubated with primary antibody (anti-myosin light chain (phospho S19) antibody (Cell Signalling Technologies) or anti-myosin light chain 2 antibody (Abcam) overnight at 5° C., washed thrice with TBS-T, and then incubated with secondary horseradish […] (HRP)-coupled antibody for 1 h at room temperature. After washing thrice in TBS-T, HRP activity was detected by ECL (Santa Cruz).

Caco-2 cells [4] = system: Caco-2 cells
Method: (§3) MTT assay: Cell viability was assessed using the 3-(4,5-dimethylthiazol-2-yl)-2,5-diphenyl tetrazolium bromide (MTT; Invitrogen, Paisley, UK) assay. Following exposure of cells to CPP complexes for 72 hours, 0.5 mg/ml MTT was added to the culture medium and incubated with the cells for a further 3 hours. Media was then removed and replaced with DMSO to lyse the cells. Absorbance was then recorded at 550 nm.

Caco-2 cell monolayers [5] = experiment: Trans-epithelial electrical resistance (TEER) of Caco-2 monolayers after apical peptide application; type: cell-based, human; details: FIG. 6; for TEER after peptide removal: fresh media to apical compartment after 180 min exposure
Caco-2 cells [6] = experiment: Cell viability / cytotoxicity, MTT assay
Method: as §3

Substance: NH2-RRV EVKYDRR-NH2 [peptide 640]
- drop of TEER (Caco-2 cell monolayers [1]; 5 mM apical, within 25 min of addition): 50%
- Efficacy at 5 mM (TEER reduction) (Caco-2 cell monolayers [1]; 5 mM): Yes
- TEER decrease to % of its initial value (Caco-2 cell monolayers [1]; 5 mM, FIG. 5): ~50%
- loss in TEER (Caco-2 cell monolayers [1]; 5 mM, after 180 min of exposure): ~50%
- TEER recovery, % of original values (Caco-2 cell monolayers [1]; after gentle washing, within 24 h): 80%
- permeability of 4 kDa dextran (Caco-2 monolayers; 5 mM): failed to affect
- transport of paracellular marker 4 kDa fluorescent dextran (4FD) (Caco-2 monolayers; 5 mM): increased transport of a paracellular marker relative to the control
- increase of rate of 4 kDa dextran permeation (Caco-2 monolayers; 10 mM apical): ~3 fold
- flux of 70 kDa dextran (Caco-2 monolayers; concentration not given): failed to affect
- blood glucose change profile ([2]; ILI of 30 IU/kg insulin plus 10 mM peptide): much delayed decrease
- MLC phosphorylation ratio (MLC to pMLC) ([3]; 15 min): significantly increased
- MLC phosphorylation ratio (MLC to pMLC) ([3]; 45 min): remained elevated
- MLC phosphorylation ratio (MLC to pMLC) ([3]; 90 min): returning to initial levels
- cell viability (mitochondrial membrane polarity marker MTS) (Caco-2 cells [4]): did not affect cell viability
- TEER after peptide removal (Caco-2 cell monolayers [5]): rapid reversal of TEER depression

Substance: NH2-RRVpTVKYDRR-NH2 (RRVTVKYDRR; HELM PEPTIDE1{R.R.V.[C[C@@H](OP(=O)(O)O)[C@H](N[*:1])C(=O)[*:2]].V.K.Y.D.R.R.[am]}$$$$V2.0; SMILES CC(C)[C@H](NC(=O)[C@H](CCCNC(=N)N)NC(=O)[C@@H](N)CCCNC(=N)N)C(=O)N[C@H](C(=O)N[C@H](C(=O)N[C@@H](CCCCN)C(=O)N[C@@H](Cc1ccc(O)cc1)C(=O)N[C@@H](CC(=O)O)C(=O)N[C@@H](CCCNC(=N)N)C(=O)N[C@@H](CCCNC(=N)N)C(N)=O)C(C)C)[C@@H](C)OP(=O)(O)O) [peptide 2]
- Efficacy at 5 mM (TEER reduction) (Caco-2 cell monolayers [1]; 5 mM): No

Substance: NH2-RRK TVKYDRR-NH2 (H-RRKTVKYDRR-NH2) [compound 5]
- Efficacy at 5 mM (TEER reduction) (Caco-2 cell monolayers [1]; 5 mM): No

Substance: RKAKYQYRRK (drug delivery enhancement peptide) [peptide 250]
- TEER change compared with peptide 640 (Caco-2 cell monolayers [1]; 5 mM, FIG. 5): slower and less pronounced drop in TEER
- transport of paracellular marker 4 kDa fluorescent dextran (4FD) (Caco-2 monolayers; 5 mM): increased transport of a paracellular marker relative to the control
- 4 kDa dextran flux rates, comparison (Caco-2 monolayers; 10 mM): 10 mM peptide 640 was equal to 10 mM peptide 250
- 4 kDa dextran flux rate compared to control (Caco-2 monolayers; 20 mM): ~6 fold
- increase of 70 kDa dextran flux (Caco-2 monolayers; 20 mM): ~3 fold
- blood sugar recovery ([2]; ILI of 30 IU/kg insulin plus 10 mM peptide, by 90 min): 70-80%
- drop in blood glucose ([2]; ILI of 30 IU/kg insulin plus 20 mM peptide, by 30 min, remained for the remainder of the experiment): 40%
- MLC phosphorylation ratio (MLC to pMLC) ([3]; 15 min): no significant changes
- MLC phosphorylation ratio (MLC to pMLC) ([3]; 45 min): elevated
- MLC phosphorylation ratio (MLC to pMLC) ([3]; 90 min): returning to basal levels
- TEER response (Caco-2 cell monolayers [5]; 20 mM peptide 250 versus 10 mM peptide 640): very comparable response to 10 mM peptide 640
- TEER after peptide removal (Caco-2 cell monolayers [5]): rapid reversal of TEER depression
- cell viability (mitochondrial membrane polarity marker MTS) (Caco-2 cells [6]; concentrations that modulated TEER and paracellular permeability): did not affect cell viability
- cytotoxicity using the MTT assay (Caco-2 cells [6]; data not shown): lack of cytotoxicity

Substance: insulin
- decrease in blood glucose ([2]; SC injection of 3 IU/kg insulin): ~50%
- time at which blood glucose began to recover ([2]; SC injection of insulin): ~90 min
- time of blood glucose nadir ([2]; SC injection of insulin): ~30 min
- effect on blood sugar ([2]; intraluminal injection of 30 IU/kg insulin alone): no effect

Substance: NH2-RRV TVKYKRR-NH2 (H-RRVTVKYKRR-NH2) [compound 3]
- Efficacy at 5 mM (TEER reduction) (Caco-2 cell monolayers [1]; 5 mM): No

Substance: NH2-RRVpTVKYKRR-NH2 (RRVTVKYKRR; HELM PEPTIDE1{R.R.V.[C[C@@H](OP(=O)(O)O)[C@H](N[*:1])C(=O)[*:2]].V.K.Y.K.R.R.[am]}$$$$V2.0; SMILES CC(C)[C@H](NC(=O)[C@H](CCCNC(=N)N)NC(=O)[C@@H](N)CCCNC(=N)N)C(=O)N[C@H](C(=O)N[C@H](C(=O)N[C@@H](CCCCN)C(=O)N[C@@H](Cc1ccc(O)cc1)C(=O)N[C@@H](CCCCN)C(=O)N[C@@H](CCCNC(=N)N)C(=O)N[C@@H](CCCNC(=N)N)C(N)=O)C(C)C)[C@@H](C)OP(=O)(O)O) [compound 4]
- Efficacy at 5 mM (TEER reduction) (Caco-2 cell monolayers [1]; 5 mM): No

Substance: NH2-RRV TVKYDRR-NH2 (H-RRVTVKYDRR-NH2) [peptide 1]
- Efficacy at 5 mM (TEER reduction) (Caco-2 cell monolayers [1]; 5 mM): No
